# Legend:
# HK-2 cells [1] = assay: Migration of HK-2 cells into the cell-free wound area, induced by TGF-β1 (EMT); format: cell-based, Human; conditions: 100 μg/mL with 50 ng/mL TGF-β1; 24 hours; vs TGF-β1 alone (comparative group 1)
# Description: (§1) Human kidney proximal tubular epithelial cell line HK-2 (from normal adult human renal cortex) used in the following experiments was obtained from, the Bioresource Collection and Research Center (BCRC) of the Food industry Research and Development Institute (FIRDI) (No. 331, Shih-Pin Rd., Hsinchu City 300, Taiwan).
# (§2) The HK-2 cells were incubated in 10-cm Petri dishes, each of which contained Dulbecco's modified Eagle's medium/Ham's Nutrient Mixture F-12 (DMEM/F12) (Manufacturer: Thermo Fisher Scientific, WA, USA; Catalogue no.: 12500062) supplemented with HyClone™ 1% (v/v) penicillin-steptomycin (Manufacturer: Cytiva; Catalogue no.: SC30010). Subsequently, cultivation was conducted in an incubator with culture conditions set at 37° C. and 5% CO2. Medium change was performed every 2 days. […]
# First, the HK-2 cells described in section 3 of the General Experimental Materials were seeded at a concentration of 4×10^4 cells per well into wells of 6-well culture plates each containing DMEM supplemented with 1% (v/v) penicillin-steptomycin, and then were divided into 4 groups, namely, a control group, a comparative group 1, a comparative group 2, and an experimental group, followed by cultivation until reaching 90% of confluence. […] Cell migration was assessed at the 0 hour and 24th hour using an inverted optical microscope.
# [2] = tested on: fibrous proteins (α-SMA, collagen I fibers, and vimentin) in kidney tissues; assay: Protein expression analysis (Western blot) of renal tissues from the left obstructed kidney after UUO surgery; format: in vivo, Male C57BL/6J mice; conditions: 7 days, vs PCG
# Description: (§3) The UUO surgery was performed in accordance with the Guidelines for Care and Use of Laboratory Animals. Specifically, during the UUO surgery, the respective mouse was anesthetized through intraperitoneal injection of pentobarbital (Manufacturer: Merck KGaA, Darmstadt, Germany; Catalogue no.: P3761) at a dose of about 60 mg per kg of body weight. The skin tissue and the subcutaneous muscle layer at the left side of the abdominal midline were incised, so that the left kidney was exposed and the left ureter was identified and dissociated. The left ureter was dissected out with scissors and ligated with silk surgical sutures (size: 4-0) at an upstream location approximately 1 cm from the renal hilum and at a downstream location approximately 1 cm from the renal hilum. After confirmation that no bleeding and no urine leakage occurred, the incised subcutaneous muscle layer and skin tissue were stitched.
# (§4) The male C57BL/6J mice described in section 2 of the “General Experimental Materials” were randomly divided into 5 groups, namely, a sham-operated group (SOG), a pathological control groups (PCG), and three experimental groups (i.e., experimental group 1 (EG1), experimental group 2 (EG2), and experimental group 3 (EG3)) (n=3 per group). After being raised in the animal room for one week, the mice in the PCG and the EG1 to EG3 were subjected to the UUO surgery as described in section 1 of the “General Experimental Procedures”. The mice in the SOG were subjected to a similar surgical procedure, except that the ureter of the mice in the SOG was not obstructed, i.e., the left ureter was not dissected out and ligated. After surgery, during the entire experimental process which lasted 7 days, all the mice were placed in iron cages.
# (§5) The mice of the EG1 to EG3 were respectively administered, via oral gavage, with the ferrous amino acid chelate described in section 1 of the “General Experimental Materials” at a dose of 5 mg/kg, 125 mg/kg and 250 mg/kg of body weight once daily (in the morning) for 7 days. At the end of Day 7, a blood sample and a urine sample, each in a volume of 0.2 mL, were obtained from each mouse in the EG1 to EG3. The mice of the SOG and the mice of the PCG received no treatment (i.e., 0 mg/kg of ferrous amino acid chelate), and at the end of Day 7, a blood sample and a urine sample, each in a volume of 0.2 mL, were obtained from each mouse.
# The renal tissues were extracted from the left obstructed kidney of a selected mouse in each group, and then lysed with NETN lysis buffer (20 mM Tris, 150 mM NaCl, 1 mM EDTA, and 0.5% NP-40) on ice. The resultant cell lysates were centrifuged, and the supernatants were collected to serve as total protein samples.
# Protein samples in equal amounts (i.e., 20 μg) as determined by Bradford assay were resolved in 8% or 10% sodium dodecyl sulfate-polyacrylamide (SDS-PAGE) gels, and then subjected to immunoblot analysis. To be specific, the separated proteins were transferred to Immobilon®-P polyvinylidene difluoride (PVDF) membranes (Manufacturer: Merck Millipore, NJ, USA). The blotted PVDF membranes thus obtained were blocked with Tris-buffered saline (TBS) and 0.1% (vol/vol) polysorbate 20 (also known as Tween 20) containing 5% non-fat dry milk for 1 hour at room temperature, followed by washing with TBST 3 times, each time for […], and then probing with the indicated primary antibodies overnight. The probed membranes were washed with a TBST buffer (a mixture of TBS and polysorbate 20) 3 times, each time for 5 minutes, and were then incubated with secondary antibodies, such as a horseradish peroxidase (HRP)-conjugated anti-mouse antibody or an HRP-conjugated anti-rabbit antibody for 60 minutes at room temperature. HRP was detected using ECL detection reagents (Merck Millipore, Darmstadt, Germany), and band intensity was determined by ImageQuant™ LAS-4000 luminescence image analyzer (GE Healthcare).
# Anti-glyceraldehyde 3-phosphate dehydrogenase (GAPDH) was used as a loading control.
# [3] = tested on: mice subjected to UUO surgery; assay: Biochemical analysis of blood and urine samples of mice 7 days after unilateral ureter obstruction (UUO) surgery; format: in vivo, Male C57BL/6J mice
# Description: Male C57BL/6J mice (having a weight of about 25 g) purchased from the National Laboratory Animal Center (Taipei, Taiwan) were kept in an animal room under the following laboratory conditions: a temperature of about 24° C. and a 12-hour light/12-hour dark cycle. Diets and water were provided ad libitum for all of the experimental animals.
# as §3, §4, §5
# The blood sample of the respective mouse was subjected to measurements of alanine transaminase (ALT), aspartate transaminase (AST), blood urea nitrogen (BUN) and creatinine levels for evaluation of kidney health. The urine sample of the respective mouse was subjected to quantification of urea nitrogen and creatinine levels for evaluation of kidney health. For each of the aforesaid parameters, the differences between each group were analyzed according to the procedures as described in the section 2 of the “General Experimental Procedures”.
# [4] = tested on: left obstructed kidney of mice subjected to UUO surgery; assay: Histological analysis of renal tissues from the left obstructed kidney after UUO surgery (H&E, Masson's Trichrome, α-SMA and vimentin staining); format: in vivo, Male C57BL/6J mice
# Description: as §3, §4, §5
# The renal tissues were extracted from the left obstructed kidney of a selected mouse in each group. Fixation was conducted using 10% formalin, and dehydration was conducted using a series of graded alcohols (lower to higher concentrations) and xylene, followed by embedding in paraffin. A tissue section of […] was obtained and placed on a slide, followed by heating in an oven at […] overnight for melting the paraffin. Xylene was used to remove the melted paraffin, and rehydration was conducted with graded alcohols (higher to lower concentrations). Endogenous peroxidase was removed using 1% H2O2, followed by washing with a phosphate-buffered saline (PBS) buffer, so as to increase the permeability. After incubating the tissue section with fetal bovine serum (FBS) to prevent binding of some non-specific antigens, water was removed by suction.
# For staining of α-smooth muscle actin (SMA), a primary antibody against α-smooth muscle actin (SMA)(α-SMA) (Manufacturer: Abcam PLC; Catalogue no.: ab5694) with a dilution ratio of 1:400 was added to the tissue section at room temperature, and the reaction was allowed to proceed for 2 hours at room temperature. Thereafter, washing was conducted twice with PBS to remove unbound primary antibodies. A Polymer-HRP secondary antibody (Manufacturer: Golden Bridge International, Inc., USA) was added. One hour later after the reaction, washing was conducted twice with PBS. […]
# HK-2 cells [5] = assay: Cytotoxicity analysis (MTT) in HK-2 cells; format: cell-based, Human; conditions: EG1 to EG6: 50, 100, 250, 500, 750 and 1000 μg/mL; 24 hours; vs control group
# Description: as §1
# as §2, with “SC30010).” for “SC30010). Subsequently, cultivation was conducted in an incubator with culture conditions set at 37° C. and 5% CO2. Medium change was performed every 2 days.”
# First, the HK-2 cells described in section 3 of the General Experimental Materials were seeded at a concentration of 2×10^4 cells per well into wells of 6-well culture plates each containing DMEM/F-12 supplemented with 1% (v/v) penicillin-steptomycin, and then were divided into 7 groups, namely, a control group (CG), and six experimental groups (i.e., experimental groups 1 to 6 (EG1 to EG6)), followed by cultivation in an incubator with culture conditions set at 37° C. and 5% CO2 for 24 hours. […] Subsequently, the medium in each group was collected and subjected to light absorbance measurement at a wavelength of 570 nm (OD570) using a spectrophotometer. […]
# [6] = EG1 and EG2: 5 and 125 mg/kg oral
# [7] = EG1 to EG3: 5, 125 and 250 mg/kg oral gavage once daily for 7 days, between SOG, PCG and EG1 to EG3
# [8] = 125 and 250 mg/kg (EG2, EG3) compared with 5 mg/kg (EG1)
# [9] = EG1 to EG3: 5, 125 and 250 mg/kg oral, 7 days, vs PCG
substance,measurement,setting,value
ferrous glycinate chelate [ferrous amino acid chelate],migration of HK-2 cells into the cell-free wound area,HK-2 cells [1],decreased capability to migrate into the cell-free wound area
same,expression of collagen I (Western blot),[2]; [6],no significant difference
same,expression of α-SMA (Western blot),[2]; [6],no significant difference
same,expression level of vimentin (Western blot),[2]; EG2 and EG3: 125 and 250 mg/kg oral,significant reduction in expression level
same,expression of collagen I (Western blot),[2]; EG3: 250 mg/kg oral,significantly reduced
same,expression of α-SMA (Western blot),[2]; EG3: 250 mg/kg oral,significantly reduced
same,expression level of vimentin (Western blot),"[2]; from EG1 to EG3: 5, 125, 250 mg/kg oral",gradually reduced from EG1 to EG3
same,blood urea nitrogen level,"[3]; EG1 to EG3: 5, 125 and 250 mg/kg oral gavage once daily for 7 days, UUO mice, vs PCG",significantly reduced compared to that in the PCG
same,urine urea nitrogen level,"[3]; EG1 to EG3: 5, 125 and 250 mg/kg oral gavage once daily for 7 days, among PCG, EG1, EG2 and EG3",no significant difference
same,ALT level in the blood sample,[3]; [7],no significant difference
same,AST level in the blood sample,[3]; [7],no significant difference
same,creatinine level in the blood sample,[3]; [7],no significant difference
same,urine creatinine level,"[3]; EG2 and EG3: 125 and 250 mg/kg oral gavage once daily for 7 days, UUO mice, vs PCG",significantly reduced compared to that in the PCG
same,degree of reduction of interstitial deposition of collagen fibers and muscle fibers,[4]; [8],greater in EG2 and EG3 compared with those in EG1
same,degree of reduction of tubular dilation,[4]; [8],greater in EG2 and EG3 compared with those in EG1
same,amount of actin fibers (α-SMA staining),[4]; [9],significantly reduced compared with those in the PCG
same,interstitial deposition of collagen fibers and muscle fibers (Masson's Trichrome staining),[4]; [9],significantly reduced compared with those in the PCG
same,number of cells undergoing fibrosis (vimentin staining),[4]; [9],significantly reduced compared with those in the PCG
same,tubular dilation (H & E staining),[4]; [9],significantly reduced compared with those in the PCG
same,"viability of the HK-2 cells (cell viability rate, MTT)",HK-2 cells [5],not significantly affected

# — patent publication US12059399B2, “Methods for alleviating kidney disease and fibrosis of organ” (Getwing Biotechnology Medical Co., Ltd, priority 2021, dated 2024)
